Data as given in patent US20220153746A1, “NITROGEN OXIDE-DONATING PDE-5 AND/OR PDE-6 INHIBITOR COMPOUNDS, AND USES THEREOF” (ILDONG PHARMACEUTICAL CO., LTD., priority 2020, published 2022).
Read-outs that look alike come from different tables or passages of the source.

Experiment: TD Phase (Groups 1 and 3): plasma and ocular tissue concentrations and pharmacokinetics of Compound 18 and its metabolite Compound 4 after once daily ocular instillation of Compound 18 nanosuspension for 7 days
Assay type: in vivo, New Zealand white rabbits
Conditions: for Cmax / Tmax / half-life / AUC(0-t): topical or ocular; for AUC(0-t): read-out: AUC0-8; for Metabolite/parent AUC ratio (Compound 4 vs Compound 18): TD phase
Description: This example illustrates the procedures and results for the levels of Compound 18 and its metabolite Compound 4 in plasma and ocular tissues of normotensive rabbits following ocular instillation of Compound 18 once daily for 7 consecutive days.
Twenty five (25) male New Zealand white rabbits were divided into 5 groups of varying amounts of animals per group.
The Test article, Compound 18 was formulated as a 2% nanosuspension in DI water containing 0.2% PS80 (polyoxyethylenesorbitan, monooleate (Tween 80)) and 0.4% HPMC (hydroxypropylmethylcellulose) at pH 6.77. Referred to herein as “Compound 18 nanosuspension.”
The study consisted of three groups (Groups 1-3) of 19 male rabbits (NZW) that underwent once daily morning ocular installation (1 eyedrop) for 7 consecutive days (Day 0-6). Groups 4-5 each consisted of 3 male rabbits (NZW) that were not dosed.
Blood samples (1 mL) were collected from the jugular vein at the intervals set out below for each group. The samples were then inverted several times following collection and held on wet ice until centrifuged. Samples were centrifuged within 60 minutes of collection under refrigeration (set at 5° C. for 10 minutes at 2000 g.
Group 1 (Pilot Study, terminal blood collection): blood was collected from 3 animals at 1 hour post day 7 dose of Compound 18 nanosuspension.
Group 3 (TD Phase, terminal blood collection): blood was collected from 3 animals at 0.5 hour, 3 animals at 2 hours, 3 animals at 4 hours, and 3 animals at 8 hours post day 7 dose of Compound 18 nanosuspension.
(§1) Group 1 (Pilot Study): 3 animals were terminated at 1 hour post Day 7 dose of Compound 18 nanosuspension. Following blood collection and termination, ocular tissues (aqueous humor, vitreous humor, cornea, iris/ciliary body, lens, optic nerve, retina, sclera/choroid, and trabecular meshwork) were collected from each animal and the tissue weights were recorded. Note: sclera and choroid were collected together. Iris and ciliary body were collected together.
as §1, with “3 (TD Phase):” for “1 (Pilot Study):”, “0.5 hour, 3 animals at 2 hours, 3 animals at 4 hours, and 3 animals at 8 hours” for “1 hour”
Plasma and tissue samples from treated animals (Groups 1-3) were analyzed for Compound 18 and its metabolite Compound 4 concentrations by LC-MS/MS.
Pharmacokinetic analysis was conducted using WinNonlin Version 6.2.1 (Pharsight, Mountain View, Calif.), operating as a validated software system. Noncompartmental analysis was conducted using the extravascular administration model for ocular instillation dosing.
The peak plasma and ocular tissue concentration, time to achieve peak plasma and ocular tissue concentration, half-life, and area under the plasma and ocular tissue concentration-time curve (Cmax, Tmax, T1/2, and AUC) were calculated from the TD phase combined with the pilot study mean animal plasma and ocular tissue concentrations for each sampling time/dose group for Compound 18 and its metabolite Compound 4.
BA Assay: Quantitation Range 0.05 to 100 ng/mL for Compound 18, 0.15 to 100 ng/mL for Compound 4.
3. Pipet 50 μL of each type of pre-spiked ocular tissue samples (AH/VH) for QC samples, 50 μL of incurred aqueous humor, and vitreous humor sample (if applicable) into a 96 well plate.
Ocular Tissues Homogenate Preparation: Incurred rabbit ocular tissues were weighed in Genogrinder tubes (plastic tubes with small beads) at the time of removal from the animal and stored frozen (<−70° C.) until analysis. The rabbit incurred ocular tissues were thawed on wet ice. […]

[1] = male, New Zealand white, rabbit, 0.8 mg/kg/day, optic nerve, Day 7, from mean concentrations
[2] = male, New Zealand white, rabbit, 0.8 mg/kg/day, plasma, Day 7, from mean concentrations
[3] = male, New Zealand white, rabbit, 0.8 mg/kg/day, retina, Day 7, from mean concentrations
[4] = male, New Zealand white, rabbit, 0.8 mg/kg/day, sclera/choroid, Day 7, from mean concentrations
[5] = male, New Zealand white, rabbit, 0.8 mg/kg/day, trabecular meshwork, Day 7, from mean concentrations
[6] = male, New Zealand white, rabbit, 0.8 mg/kg/day, vitreous humor, Day 7, from mean concentrations
[7] = male, New Zealand white, rabbit, Aqueous Humor, Day 7, Compound 18 0.8 mg/kg ocular instillation once daily, Groups 1 and 3
[8] = male, New Zealand white, rabbit, Cornea, Day 7, Compound 18 0.8 mg/kg ocular instillation once daily, Groups 1 and 3
[9] = male, New Zealand white, rabbit, Iris/Ciliary Body, Day 7, Compound 18 0.8 mg/kg ocular instillation once daily, Groups 1 and 3
[10] = male, New Zealand white, rabbit, Lens, Day 7, Compound 18 0.8 mg/kg ocular instillation once daily, Groups 1 and 3
[11] = male, New Zealand white, rabbit, Optic Nerve, Day 7, Compound 18 0.8 mg/kg ocular instillation once daily, Groups 1 and 3
[12] = male, New Zealand white, rabbit, Plasma, Day 7, Compound 18 0.8 mg/kg ocular instillation once daily, Groups 1 and 3
[13] = male, New Zealand white, rabbit, Retina, Day 7, Compound 18 0.8 mg/kg ocular instillation once daily, Groups 1 and 3
[14] = male, New Zealand white, rabbit, Sclera/Choroid, Day 7, Compound 18 0.8 mg/kg ocular instillation once daily, Groups 1 and 3
[15] = male, New Zealand white, rabbit, Trabecular Meshwork, Day 7, Compound 18 0.8 mg/kg ocular instillation once daily, Groups 1 and 3
[16] = male, New Zealand white, rabbit, Vitreous Humor, Day 7, Compound 18 0.8 mg/kg ocular instillation once daily, Groups 1 and 3

CCCc1nn(C)c2c(=O)[nH]c(-c3cc(S(=O)(=O)N4CC(CCCO)C4)ccc3OCC)nc12 [Compound 4, 5-(2-ethoxy-5-((3-(3-hydroxypropyl)azetidin-1-yl)sulfonyl)phenyl)-1-methyl-3-propyl-1,6-dihydro-7H-pyrazolo[4,3-d]pyrimidin-7-one]
Cmax [1]: 40.2 ng/g
Tmax [1]: 1 h
half-life [1]: 2.93 h
Cmax [2]: 1.02 ng/mL
Tmax [2]: 0.5 h
half-life [2]: 0.958 h
AUC(0-t) [2]: 1.57 ng·h/mL
Cmax [3]: 50.9 ng/g
Tmax [3]: 2 h
half-life [3]: 1.93 h
Cmax [4]: 303 ng/g
Tmax [4]: 4 h
half-life [4]: 1.74 h
Cmax [5]: 204 ng/g
Tmax [5]: 1 h
half-life [5]: 2.2 h
Cmax [6]: 2.32 ng/mL
Tmax [6]: 1 h
half-life [6]: 1.72 h
AUC(0-t) [6]: 9.9 ng·h/mL
Cmax [7]: 124 ng/mL
Tmax [7]: 1 h
half-life [7]: 1.95 h
AUC(0-t) [7]: 314 ng·h/mL
Cmax [8]: 3600 ng/g
Tmax [8]: 1 h
half-life [8]: 2.63 h
Cmax [9]: 980 ng/g
Tmax [9]: 1 h
half-life [9]: 2.11 h
Cmax [10]: 18.1 ng/g
Tmax [10]: 1 h
half-life [10]: 2.25 h
Cmax [11]: 40.2 ng/g
Tmax [11]: 1 h
half-life [11]: 2.93 h
Cmax [12]: 1.02 ng/mL
Tmax [12]: 0.5 h
half-life [12]: 0.958 h
AUC(0-t) [12]: 1.57 ng·h/mL
Cmax [13]: 50.9 ng/g
Tmax [13]: 2 h
half-life [13]: 1.93 h
Cmax [14]: 303 ng/g
Tmax [14]: 4 h
half-life [14]: 1.74 h
Cmax [15]: 204 ng/g
Tmax [15]: 1 h
half-life [15]: 2.2 h
Cmax [16]: 2.32 ng/mL
Tmax [16]: 1 h
half-life [16]: 1.72 h
AUC(0-t) [16]: 9.9 ng·h/mL
concentration at 8 h (male, New Zealand white, rabbit, trabecular meshwork, other: ocular instillation, 0.8 mg/kg/day, TD Phase, Group 3, 8 h, Mean, read-out: Final Compound 4 Trabecular Meshwork Conc.): 13.9 ng/g
AUC0-8 (optic nerve, Day 7, from mean concentrations): 159 ng·h/g
Metabolite/parent AUC ratio (Compound 4 vs Compound 18) (optic nerve): 0.133
AUC0-8 (retina, Day 7, from mean concentrations): 213 ng·h/g
Metabolite/parent AUC ratio (Compound 4 vs Compound 18) (retina): 1.34
AUC0-8 (sclera/choroid, Day 7, from mean concentrations): 1494 ng·h/g
Metabolite/parent AUC ratio (Compound 4 vs Compound 18) (sclera/choroid): 1.32
AUC0-8 (trabecular meshwork, Day 7, from mean concentrations): 533 ng·h/g
Metabolite/parent AUC ratio (Compound 4 vs Compound 18) (trabecular meshwork): 18.0
